Consider 3 compounds from PMC11478334, “Quaternized Curcumin Derivative—Synthesis, Physicochemical Characteristics, and Photocytotoxicity, Including Antibacterial Activity after Irradiation with Blue Light” (Molecules, 2024).

Like-named read-outs stand apart in the source and are kept apart here.

The nature of data set [1]: Aggregation studies by UV-vis serial dilution. The following applies: in DMF. In kind it is physicochemical. The method, then: The aggregation properties of the studied compounds were evaluated using statistical analysis of the UV–vis absorption spectra during serial dilution. […] This can be associated with the presence of a positive charge that prevents aggregation due to the repulsion of the same charges. […] According to the literature, DMSO can permeate into curcumin clusters and stabilize the non-aggregated molecules due to solvation.
The aggregation studies were performed at ambient temperature. Known amounts of 2, 3, and curcumin as a reference in volumetric flasks were dissolved in DMSO and DMF and left to stir overnight. Then, the solutions were diluted appropriately to achieve concentrations in the range between 1.5 × 10^−6 mol/dm^3 and 5.5 × 10^−5 mol/dm^3. The samples were then moved into quartz cuvettes (l = 10 mm, Hellma, Müllheim, Germany), and their spectra were recorded using a Shimadzu U-1900 spectrophotometer (Shimadzu, Kyoto, Japan). The recorded spectra and numerical data were then used for the determination of the dependence between the maximum peak absorption and the sample concentration according to the A = f(c) function, used further for statistical verification of the Lambert–Beer law.

In another data set the test system is Aliivibrio fischeri. In words: Microtox acute toxicity test. In kind it is cell-based. The following applies: for acute toxicity / ecotoxicity verdict: tested at 1, 10 and 100 µM. An excerpt:
All studied compounds were subjected to a Microtox acute toxicity test. The test is based on bioluminescent Aliivibrio fischeri bacteria, which are very sensitive to the presence of toxic substances. Changes in the toxicity of the environment surrounding the bacterium influence its respiratory processes and translate into the emitted bioluminescence intensity. Therefore, in contact with a toxic substance at a specific concentration, a linear decrease in luminescence is observed. Dimethylsulfoxide was used as a solubilizer of studied compounds in amounts not exceeding 1% v/v. To determine the effect of the solvent alone, 1% DMSO solution in water was also tested.
The acute toxicity of the tested curcumionoids was investigated on a Modern Water Microtox Model 500 apparatus equipped with Modern Water MicrotoxOmni 4.2 software, according to the 81.9% screening test procedure provided by the manufacturer (Modern Water, London, UK). All the reagents and solutions (Microtox Acute Reagent, Microtox Diluent, and Microtox Osmotic Adjusting Solution) were purchased from Tigret (Warsaw, Poland). Solutions of the tested compounds were prepared using DMSO and deionized water. […] Each compound was tested at three final concentrations (1 µM, 10 µM, and 100 µM) and at two time points: 5 min and 15 min. The change in the bacterial bioluminescence was monitored after the addition of the sample solution and compared to the negative control.

The next data set has as its system MRC-5—lung fibroblasts. In words: MTT cell viability assay. In kind it is cell-based, human. The method, then:
(§1) To determine the toxicity of the tested compounds against normal and tumor cells, a cell viability assay was performed using MTT dye. The following cell lines were used: PHDF—primary human dermal fibroblasts, MRC-5—lung fibroblasts, WM266-4—melanoma, and WM115—melanoma. Whenever possible, the IC50 value was calculated for each cell line. The IC50 results are reported in Table 9, while Figure 14 presents graphs illustrating the dependence of cell viability on the concentration of the tested compounds.
(§2) In order to analyze the cytotoxic effect of curcumin and compounds 2 and 3, different cell lines were used: PHDF—primary human dermal fibroblasts, MRC-5—lung fibroblasts, WM266-4—melanoma (low-melanotic), and WM115—melanoma (high-melanotic). All cell lines were seeded onto 96-well flat-bottom plates at a concentration of 15,000 cells/well. Curcumin (1) and compounds 2 and 3 were dissolved in the completed culture medium at the final concentrations of 5 µM, 10 µM, 20 µM, 30 µM, 40 µM, and 50 µM. The final volume of medium in each well was 200 µL. Cells which were not exposed to the tested compounds constituted a control group. After 24 h, each of the reagents was added to the cells. Control cells were not treated with synthesized reagents; they were incubated with a completed cell culture medium. The incubation of cells with 1, 2, or 3 lasted 24 and 48 h. Then, the medium was discarded, and the new medium containing MTT (3-(4,5-dimethylthiazol-2-yl)-2,5-diphenyltetrazolium bromide) (Affymetrix, Cleveland, OH, USA) at a final concentration of 0.5 mg/mL was added to the cell culture. Cells were incubated for 2.5 h in cell culture conditions. Next, the medium was removed, and 100 µL of DMSO (Thermo Scientific, Waltham, MA, USA) was added to dissolve the formed formazan crystals. The absorbance was read with a Multiskan plate reader at 570 nm and the background at 655 nm (Thermo Scientific, Waltham, MA, USA). The experiment was performed in triplicate.
(§3) PHDF cells were extracted from skin pieces collected following mastectomy procedures at the Greater Poland Cancer Centre in Poznań, Poland. Each time, informed patient agreement was acquired for the “The Cancer Genome Atlas (TCGA)” project to utilize biological material for scientific research purposes. […] The MRC-5, WM266-4, and WM115 cell lines were obtained from the American Type Culture Collection (ATCC). For culturing of the PHDF, WM266-4, and WM115 cell lines, the medium contained Dulbecco′s Modified Eagle′s Medium (DMEM) (Biowest, Nuaillé, France), 10% of fetal bovine serum (Biowest, Nuaillé, France), and 1% of penicillin/streptomycin agents (Merck Millipore, Darmstadt, Germany). Cells were incubated in a humidified incubator containing 5% CO2. The MRC-5 cell line was cultured similarly to the method described in our previous article. Briefly, cells were incubated at 37 °C in an atmosphere enriched with 5% CO2. The basic culture medium was Dulbecco’s Modified Eagle’s Medium (DMEM) (Biowest, Nuaillé, France) supplemented with 10% fetal bovine serum (FBS) (Biowest, Nuaillé, France) with the addition of 2 mM L-glutamine and 5% non-essential amino acid solution.

The subject of data set [2] is PHDF—primary human dermal fibroblasts. In words: MTT cell viability assay. In kind it is cell-based. The method, then: as §1, §2, §3
In data set [3] the test system is WM115—melanoma (high-melanotic). As to the kind of experiment: MTT cell viability assay. In kind it is cell-based. The method, then: as §1, §2, §3
(In general: Formazan colour is commonly taken as a measure of viable cells.)

Data set [4] deals with WM266-4—melanoma (low-melanotic). As to the kind of experiment: MTT cell viability assay. In kind it is cell-based. As to the method: as §1, §2, §3
The mark [5] stands for this setting: Homo sapiens, Fibroblast, 24 h incubation, read-out: IC50 24 h.
[6] abbreviates: Homo sapiens, Fibroblast, 48 h incubation, read-out: IC50 48 h (converted).
The mark [7] stands for this setting: Homo sapiens, Fibroblast, 48 h incubation, read-out: IC50 48 h.
The mark [8] stands for this setting: 24 h incubation, read-out: IC50 24 h.
Where [9] appears, read: 48 h incubation, read-out: IC50 48 h (converted).

The term IC50 denotes the concentration that gives 50% inhibition. Consider `F[B-]1(F)OC(/C=C/c2ccc(OCCN3CCOCC3)cc2)=CC(/C=C/c2ccc(OCCN3CCOCC3)cc2)=[O+]1` [Compound 2], for which the aggregation entry in data set [1] is “strong aggregation”. In addition, in the data set with Aliivibrio fischeri (100 µM), the “decrease in A. fischeri bioluminescence” value was determined as 45%. In the data set with Aliivibrio fischeri (lower concentrations (below 100 µM)), the “effect on A. fischeri bioluminescence” value is recorded as “negligible”. Further, the IC50 is above 50 µM in the data set with MRC-5—lung fibroblasts (setting [5]); 3.8 µM with MRC-5—lung fibroblasts (setting [6]); above 50 µM in data set [2] (setting [5]); 28.4 µM in data set [2] (setting [7]); above 50 µM in data set [3] (setting [8]); above 50 µM in data set [3] (setting [9]). Besides, the IC50 in data set [4] (setting [8]) and in data set [4] (setting [9]) was above 50 µM throughout.

On to `C[N+]1(CCOc2ccc(C=CC3=CC(C=Cc4ccc(OCC[N+]5(C)CCOCC5)cc4)=[O+][B-](F)(F)O3)cc2)CCOCC1` [Compound 3], for which the aggregation entry in data set [1] is “negligible”. Further, the “decrease in A. fischeri bioluminescence” value with Aliivibrio fischeri (10 µM, after 5 min exposure) is recorded as 53%; in the data set with Aliivibrio fischeri (100 µM), 99%. For the same compound, the “acute toxicity / ecotoxicity verdict” value with Aliivibrio fischeri was “could be ecotoxic at concentrations of 10 µM and 100 µM”. The IC50 (with MRC-5—lung fibroblasts (setting [5]); with MRC-5—lung fibroblasts (setting [6]); in data set [2] (setting [5]); in data set [2] (setting [7]); in data set [3] (setting [8]); in data set [3] (setting [9])) was above 50 µM in each case. Besides, the IC50 in data set [4] (setting [8]) and in data set [4] (setting [9]) was above 50 µM in each case.

For the compound Curcumin [reference compound], the aggregation result in data set [1] was “strong aggregation”. Also, the entries for the “decrease in A. fischeri bioluminescence” value in the data set on Aliivibrio fischeri (1 µM) and with Aliivibrio fischeri (10 µM) were 0% and 99%, respectively. Moreover, the “acute toxicity / ecotoxicity verdict” value in the data set with Aliivibrio fischeri was “reveals ecotoxicity only at concentrations of 100 µM and 10 µM”. The IC50 in the data set with MRC-5—lung fibroblasts (setting [8]) was 39.5 ± 8.8 µM; in the data set with MRC-5—lung fibroblasts (setting [9]) it was 18.1 µM; in data set [2] (setting [8]), above 50 µM; in data set [2] (48 h incubation, read-out: IC50 48 h), 24.6 µM; in data set [3] (setting [8]), 39.5 ± 9.4 µM; in data set [3] (setting [9]), 18.1 µM. In addition, the IC50 in data set [4] (24 h incubation, listed as curcumin, read-out: IC50 24 h) was 45 µM; in data set [4] (setting [8]), 44.9 ± 10.7 µM; in data set [4] (48 h incubation, listed as curcumin, read-out: IC50 48 h (converted)), 21 µM; in data set [4] (setting [9]), 20.6 µM.
